From PubChem BioAssay (NCI)
Several values for one entry are separate records, joined by “and”; a condition that tells them apart may be missing. Equal entries are not always repeated.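 Protocol summary: plate cells (96-well), add compound at 5 concentrations, incubate 48 h, interpolate endpoints linearly. Here, GI50 denotes the concentration required for 50% inhibition of growth. TGI denotes the concentration required for complete inhibition of growth.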

Columns and labels:
Test in all cases: NCI anticancer screen, dose series, 48 h
[1] = test system: OVCAR-5 ovarian
[2] = test system: 786-0 renal
[3] = test system: OVCAR-8 ovarian
[4] = test system: NCI-H23 lung
[5] = test system: MOLT-4 leukemia
[6] = test system: SK-OV-3 ovarian
[7] = test system: K-562 leukemia
[8] = test system: SNB-19 CNS
[9] = test system: ACHN renal
[10] = test system: KM12 colon

Row | Structure (SMILES) | TGI [1] | TGI [2] | TGI [3] | TGI [4] | TGI [5] | TGI [6] | TGI [7] | TGI [8] | TGI [9] | TGI [10] | GI50 [5] | GI50 [1] | GI50 [2] | GI50 [3] | GI50 [4] [µM] | GI50 [6] | GI50 [7] | GI50 [8] | GI50 [9] | GI50 [10]
1 | CC(=O)NNc1nc(C)c(C(=O)NNC(=O)C(=O)Nc2ccc(Cl)c([N+](=O)[O-])c2)s1 | > 100 µM | > 100 µM | > 100 µM | > 100 µM | 54.6 µM | > 100 µM | 74.4 µM | > 100 µM | > 100 µM | > 100 µM | – | – | – | – | – | – | – | – | – | –
2 | C/C(=C1/N=C(c2cc([N+](=O)[O-])ccc2Cl)N(c2ccc(Br)cc2)C1=O)c1ccc(N(CCC#N)CCC#N)cc1C | > 100 µM | > 100 µM | > 100 µM | > 100 µM | > 100 µM | > 100 µM | 29.3 µM | > 100 µM | > 100 µM | > 100 µM | – | – | – | – | – | – | – | – | – | –
3 | C/C(=N\Nc1ccccc1)c1sc(-c2nc(C)c(/C(C)=N/Nc3ccccc3)s2)nc1C | > 100 µM | > 83.1 µM | > 100 µM | > 100 µM | > 100 µM | > 100 µM | 69.9 µM | > 100 µM | > 32 µM | > 100 µM | – | – | – | – | – | – | – | – | – | –
4 | NC(Cc1ccccc1)C(=O)OCN1C(=O)C2C3C=CC(C2C1=O)C1C2C(=O)N(COC(=O)C(N)Cc4ccccc4)C(=O)C2C31 (stereo not drawn) | > 100 µM | 38.2 µM and 38 µM | 54.1 µM and 43.7 µM | 38.1 µM and 42.7 µM | 52 µM and 42.9 µM | > 100 µM and 78.9 µM | 63.2 µM and > 100 µM | > 100 µM | 59.2 µM and 71.3 µM | 40.7 µM and 40.1 µM | 24.3 µM and 12 µM | – | – | – | – | – | – | – | – | –
5 | CC(=O)OC1C[C@H]2C(OC(=O)c3ccccc3)C3C4(OC(C)=O)COC4C[C@H](OC(C)=O)[C@@]3(C)C(OC(C)=O)[C@H](OC(C)=O)C(=C1C)C2(C)C (stereo partly drawn) | > 100 µM | > 100 µM | > 100 µM | > 100 µM | > 100 µM | > 100 µM | > 100 µM | > 100 µM | > 100 µM | > 100 µM | – | – | – | – | – | – | – | – | – | –
6 | Cc1ccc2c(c1)[n+](=O)c(C(=O)c1cccs1)c(C(F)(F)F)n2[O-] | 7.48 µM and 12.9 µM | 50 µM and 12.4 µM | – | 2.59 µM | 50 µM | 11.2 µM and 19.4 µM | 50 µM and 19.5 µM | 11.2 µM and 17.8 µM | 6.47 µM and 4.68 µM | 3.79 µM and 16.3 µM | 4.12 µM | 1.58 µM and 1.57 µM | 4.85 µM and 1.05 µM | 1.67 µM and 0.247 µM | 0.854 | 1.56 µM and 2.34 µM | 1.01 µM and 0.466 µM | 2.24 µM and 3.91 µM | 1.25 µM and 0.541 µM | 0.849 µM and 1.4 µM
7 | COc1cccc(/C=N/[N-]C(=O)c2ccncc2)c1[O-].[Mn+2].[OH3+] | 88.9 µM | > 100 µM | > 100 µM | 41.1 µM | > 100 µM | 50.2 µM | 9.69 µM | > 100 µM | 47.8 µM | > 100 µM | 3.24 µM | 37 µM | 5.43 µM | 3.77 µM | 8.12 | 5.94 µM | 2.9 µM | 42 µM | 3.75 µM | 8.31 µM
8 | Cc1noc2cccc(O)c12 | > 100 µM | > 100 µM | > 100 µM | > 100 µM | > 100 µM | > 100 µM | > 100 µM | > 100 µM | > 100 µM | > 100 µM | – | – | – | – | – | – | – | – | – | –
9 | C[C@@H](Nc1nc(N[C@H](C)C(F)(F)F)nc(-c2cccc(Cl)n2)n1)C(F)(F)F | > 100 µM | 91.4 µM | > 100 µM | > 100 µM | > 100 µM | > 100 µM | > 100 µM | 63.5 µM | > 100 µM | > 100 µM | > 100 µM | > 100 µM | 27.4 µM | 31.3 µM | 54 | 37.6 µM | > 100 µM | 23.3 µM | 36.4 µM | > 100 µM
10 | CCc1cccc(C(C)C)c1NC(=O)CC1Sc2ccccc2NC1=O (stereo not drawn) | > 100 µM | > 100 µM | > 100 µM | > 100 µM | 92.1 µM | > 100 µM | > 100 µM | > 100 µM | > 100 µM | > 100 µM | – | – | – | – | – | – | – | – | – | –
11 | COc1ccc(-n2cc(-c3cc(OC)c(OC)c(OC)c3)nc2SCc2ccc(Cl)cc2)cc1OC | > 100 µM | > 100 µM | > 100 µM | > 100 µM | > 100 µM | > 100 µM | > 100 µM | > 100 µM | > 100 µM | > 100 µM | > 100 µM | > 100 µM | > 100 µM | > 100 µM | > 100 | > 100 µM | 87.5 µM | > 100 µM | > 100 µM | > 100 µM
12 | C[C@H]1CCC/C=C/C2CC(OC(=O)CN(C)C)CC2C(OC(=O)CN(C)C)/C=C/C(=O)O1 (stereo partly drawn) | 4.05 µM | – | > 22.9 µM | 1.92 µM | 5.44 µM | – | > 100 µM | > 100 µM | 11.9 µM | 1.31 µM | 0.357 µM | 0.44 µM | 0.107 µM | 0.308 µM | 0.359 | 0.237 µM | 3.29 µM | 2.76 µM | 0.398 µM | 0.198 µM
13 | Oc1ccc(NC(=S)Nc2ccccc2)cc1 | > 100 µM | > 100 µM | > 100 µM | > 100 µM | > 100 µM | > 100 µM | > 100 µM | > 100 µM | > 100 µM | > 100 µM | > 100 µM | > 100 µM | > 100 µM | > 100 µM | > 100 | > 100 µM | > 100 µM | > 100 µM | > 100 µM | > 100 µM
14 | N#C/C(=C\c1ccc(O)c(O)c1)C(=O)NCc1ccc(C(F)(F)F)cc1 | 44.7 µM | 37.5 µM | > 49.7 µM | 18.5 µM | 31.7 µM | 61.4 µM | > 83.6 µM | > 68 µM | 23.9 µM | 26.9 µM | 3.92 µM | 14.2 µM | 18.4 µM | 10.1 µM | 4.54 | 16.6 µM | 9.91 µM | 11.2 µM | 6.14 µM | 6.08 µM
15 | CC1(C)OB(c2ccc(N(CCOS(C)(=O)=O)CCOS(C)(=O)=O)cc2)OC1(C)C | 48.3 µM | 21.6 µM | > 92.3 µM | 30.4 µM | > 72.7 µM | > 100 µM | > 86.2 µM | > 100 µM | 14.2 µM | > 85 µM | 1.68 µM | 25.4 µM | 3.41 µM | 21.7 µM | 6.88 | 34.3 µM | 16.3 µM | 31.3 µM | 3 µM | 26.8 µM
